From US20050084872A1 (priority 2003, published 2005)

Assays:
[1] = tested on: PPARγ; experiment: PPARγ efficacy score from expression of the 22-probe efficacy-related gene population in cultured 3T3L1 adipocytes; assay type: cell-based, mouse; conditions: mean over 22 probes of logRatio divided by template logRatio, template = average of Rosiglitazone and {2-[2-(4-phenoxy-2-propylphenoxy)ethyl]-1H-indol-5-yl}acetic acid
Protocol: Twenty four hours after the cells were contacted with one or other of the foregoing agents the cells were harvested and RNA extracted therefrom.
Thus, an efficacy value a PPARγ agonist, or partial agonist, was calculated in the following manner. […] This mean value was the PPARγ efficacy value for the PPARγ agonist, or partial agonist.
A chi-square fitting was also used to calculate the efficacy value for each tested PPARγ agonist, or partial agonist. The chi-square fitting formula used was: [formula]
Where Ri, σRi stand for the logRatio and error for logRatio of the full template. Xi and σXi stand for the logRatio and error for logRatio of the testing compound.
A PPARα agonist was included as a control.

[2] = tested on: PPARγ; experiment: PPARγ classifier value from expression of the 303-probe classifier gene population in 3T3L1 adipocyte cell line; assay type: cell-based, mouse; conditions: Phase 3, high dosage (30×EC50), mean over 303 probes of logRatio divided by template logRatio, template = average of two full agonists (Group 1)
Protocol: The overall experiment was conducted in three phases (i.e., in three separate experiments conducted at three different times) as shown in Table 11 below. Three replicates were done for each of the tested compounds in each phase of the experiment.
The other PPARγ agonist, and partial agonist, compounds were used in testing the classifier population of genes. […] The PPARα agonist was included as a control.
The three replicate gene expression profiles within each phase of the experiment were first combined based on the error-weighted average. Expression profiles of two PPARγ full agonists, and four PPARγ partial agonists (in Phase 1) were chosen for classifier training, and were divided into the following two groups:
Group 1: two PPARγ full agonists (5-(4-{2-[methyl(pyridin-2-yl)amino]ethoxy} benzyl)-1,3-thiazolidine-2,4-dione and 5-{4-[2-hydroxy-2-(5-methyl-2-phenyl-1,3-oxazol-4-yl)ethoxy]benzyl}-1,3-thiazolidine-2,4-dione)
The Matlab function ANOVA1 (one-way analysis of variance) was used to calculate the pvalue (hereafter referred to as the ANOVA-pvalue) for the null hypothesis that the means of Group 1 and Group 2 are equal.

SMILES: CCCc1cc(Oc2ccccc2)ccc1OCCc1cc2cc(CC(=O)O)ccc2[nH]1 [Agonist 1, {2-[2-(4-phenoxy-2-propylphenoxy)ethyl]-1H-indol-5-yl}acetic acid]
- Efficacy Score [1]: 1.033
- Classifier Value [2]: 0.881

SMILES: CN(CCOc1ccc(CC2SC(=O)NC2=O)cc1)c1ccccn1 (stereo not shown) [Rosiglitazone, 5-(4-{2-[methyl(pyridin-2-yl)amino]ethoxy}benzyl)-1,3-thiazolidine-2,4-dione]
- Efficacy Score [1]: 0.967
- Classifier Value [2]: 0.850
